This note sets out measurements from patent EP0585371B1, “AROMATIC OLIGOMERIC COMPOUNDS USEFUL AS MIMICS OF BIOACTIVE MACROMOLECULES” (RHONE-POULENC RORER INTERNATIONAL (HOLDINGS) INC., priority 1991, dated 1992).

Test [1] has as its target T1, vWF Binding to Gp1b (Homo sapiens, UniProt P04275+P07359).
T1 construct: multimeric vWF (isolated from human plasma cryoprecipitate); Formalin-fixed platelets, prepared according to the method of MacFarlane; from tissue; host or cells: vWF from human plasma cryoprecipitate; GPIb on formalin-fixed platelets
Briefly: Inhibition of ristocetin-induced binding of 125I-vWF to formalin-fixed platelets. Conditions: at 100 µg/ml; ristocetin 1.0 mg/ml. The protocol: The binding of vWf (vonWillebrand Factor) to glycoprotein Ib is measured in one of two experimental systems, in the presence of either ristocetin or botrocetin as modulators of binding. The ristocetin modulated binding is described herein.
Formalin-fixed platelets, prepared according to the method of MacFarlane, D. et al., Thromb. Diath. Haemorrh. 34, 306-308 (1975), were preincubated at room temperature for 15 minutes with specified dilutions of oligomers according to the present invention. Ristocetin, (Sigma, St. Louis, MO) diluted to a final concentration of 1.0 mg/ml, and ^125I-labelled multimeric vWF (isolated from human plasma cryoprecipitate according to the method of Fulcher, C.A. et al. Proc. Natl. Acad. Sci. USA, 79, 1648-1652 (1982), and labelled according to the method of Fraker, P.J. et al. Biochem. Biophys. Res. Commun., 80, 849-857 (1978)) were then added to the incubation mixture, and the amount of ^125I- vWF bound to the platelets was determined. ^125I-vWF binding to the platelets was referenced against 100% binding which was defined as the amount of ^125I- vWF bound in the absence of added oligomer compound. The method for measuring vWF binding is reported in detail in Ruggeri et al., J. Clin. Invest., 72, 1-12, (1983), herein incorporated by reference.

The test system of test [2] is Vascular smooth muscle cells (VSMC). Briefly: Smooth Muscle Cell DNA Synthesis Assay (3H-thymidine incorporation in response to PDGF). In kind it is cell-based, swine. The settings on record: inhibition of incorporation of 3H-thymidine in response to PDGF (9 ng/ml). Here is the method:
Vascular smooth muscle cells (VSMC) are isolated from swine coronaries obtained from swine hearts (Hatfield Meat Packing, Hatfield, PA) by enzyme dissociation as described by Gunther, et al., in J. Cell. Biol. 92, 289 (1982). Hyaluronidase (0.5 mg/ml) is added to facilitate dispersal. Cells are maintained in Earle's modified minimal essential medium (EMEM) with D-valine substituted for L-valine, supplemented with Hepes (10 mM), fetal bovine serum (FBS) (10%), penicillin (100 U/ml) and streptomycin ( 100 µg/ml).
The VSMC (passage 2) are plated at a density of 3 x 10^4 /cm2 (1x10^4 cells/well of 96 well tray) and after 48 hours of normal growth are arrested by replacement of above media with serum-free media for 48 hours consisting of: EMEM: Hams F12 (1:1), insulin, 5 µg/ml; transferrin, 35 µg/ml; selenite, 5 ng/ml; antibiotics and buffer (as above). The oligomer of the present invention to be tested (.01-10 µM) is added 2 hours prior to addition of porcine platelet derived growth factor (Research and Diagonostics, Minneapolis, MN), or FBS,in fresh serum-free media. Twenty-four hours later the oligomers are again added preceding addition of growth factors by 2 hours. […]
The VSMC are pulsed (5 hours) with ^3H-thymidine (Amersham, Arlington Heights, IL) (1 µCi/well of a 96 well plate; 42 Ci/mmole) added 15-18 hours after the last dose of growth factor. DNA synthesis is determined in NaOH extraction of ethanol/ether fixed cells as reported by Nemecek, et al., PNAS 83, 674 (1986). The cells are washed with phosphate bufferred saline (200 µl/well of 96-well tray. The cells are incubated with trichloroacetic acid (TCA) (10%, 200 ul) for 5 minutes to remove cytoplasmic label. After a rapid wash with cold 10% TCA, cells are fixed with ethanol/ether (2:1, 200 µl/well 5 min) and dried. The labeled DNA is extracted with 0.5 N NaOH (200 µl/well 30 min incubation, room temperature). The extracted DNA is neutralized (0.5 N HCI) and counted by liquid scintillation.
Statistical evaluation is as reported by Bilder, et al., Am. […] IC50 values are calculated by linear regression (RPL of RS1) from % inhibition of a minimum of 3 log fold dilutions of oligomers in the presence of PDGF (9 ng/ml) which give 70-80% of a maximal PDGF response. […] Percent inhibition is calculated by comparing the effect of PDGF alone (vehicle treated cultures + PDGF minus vehicle treated cultures without PDGF) to the effect of oligomers (oligomer + PDGF minus oligomer alone) and divided by the effect of PDGF times 100. i.e., = % inhibition = ((ΔVehicle + PDGF) - (Δoligomer + PDGF)/(Δvehicle + PDGF)) x 100.

Test [3] relates to normal pooled plasma. Briefly: Anticoagulation activity, Activated Partial Thromboplastin Time (APTT) test. Conditions: concentration required to double clotting time. The method in brief:
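Normal pooled plasma was mixed with compound in 50 mM Tris-HCl, pH 7.5, and held at 37 °C for 2.5 min. Actin-activated cephaloplastin was added for 5 min, then 35 mM CaCl, and clotting time was read photometrically. Over about .025–1 mg/ml, the concentration doubling clotting time was found by linear interpolation.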

T1 sequence (P04275 764-2813 limits assumed): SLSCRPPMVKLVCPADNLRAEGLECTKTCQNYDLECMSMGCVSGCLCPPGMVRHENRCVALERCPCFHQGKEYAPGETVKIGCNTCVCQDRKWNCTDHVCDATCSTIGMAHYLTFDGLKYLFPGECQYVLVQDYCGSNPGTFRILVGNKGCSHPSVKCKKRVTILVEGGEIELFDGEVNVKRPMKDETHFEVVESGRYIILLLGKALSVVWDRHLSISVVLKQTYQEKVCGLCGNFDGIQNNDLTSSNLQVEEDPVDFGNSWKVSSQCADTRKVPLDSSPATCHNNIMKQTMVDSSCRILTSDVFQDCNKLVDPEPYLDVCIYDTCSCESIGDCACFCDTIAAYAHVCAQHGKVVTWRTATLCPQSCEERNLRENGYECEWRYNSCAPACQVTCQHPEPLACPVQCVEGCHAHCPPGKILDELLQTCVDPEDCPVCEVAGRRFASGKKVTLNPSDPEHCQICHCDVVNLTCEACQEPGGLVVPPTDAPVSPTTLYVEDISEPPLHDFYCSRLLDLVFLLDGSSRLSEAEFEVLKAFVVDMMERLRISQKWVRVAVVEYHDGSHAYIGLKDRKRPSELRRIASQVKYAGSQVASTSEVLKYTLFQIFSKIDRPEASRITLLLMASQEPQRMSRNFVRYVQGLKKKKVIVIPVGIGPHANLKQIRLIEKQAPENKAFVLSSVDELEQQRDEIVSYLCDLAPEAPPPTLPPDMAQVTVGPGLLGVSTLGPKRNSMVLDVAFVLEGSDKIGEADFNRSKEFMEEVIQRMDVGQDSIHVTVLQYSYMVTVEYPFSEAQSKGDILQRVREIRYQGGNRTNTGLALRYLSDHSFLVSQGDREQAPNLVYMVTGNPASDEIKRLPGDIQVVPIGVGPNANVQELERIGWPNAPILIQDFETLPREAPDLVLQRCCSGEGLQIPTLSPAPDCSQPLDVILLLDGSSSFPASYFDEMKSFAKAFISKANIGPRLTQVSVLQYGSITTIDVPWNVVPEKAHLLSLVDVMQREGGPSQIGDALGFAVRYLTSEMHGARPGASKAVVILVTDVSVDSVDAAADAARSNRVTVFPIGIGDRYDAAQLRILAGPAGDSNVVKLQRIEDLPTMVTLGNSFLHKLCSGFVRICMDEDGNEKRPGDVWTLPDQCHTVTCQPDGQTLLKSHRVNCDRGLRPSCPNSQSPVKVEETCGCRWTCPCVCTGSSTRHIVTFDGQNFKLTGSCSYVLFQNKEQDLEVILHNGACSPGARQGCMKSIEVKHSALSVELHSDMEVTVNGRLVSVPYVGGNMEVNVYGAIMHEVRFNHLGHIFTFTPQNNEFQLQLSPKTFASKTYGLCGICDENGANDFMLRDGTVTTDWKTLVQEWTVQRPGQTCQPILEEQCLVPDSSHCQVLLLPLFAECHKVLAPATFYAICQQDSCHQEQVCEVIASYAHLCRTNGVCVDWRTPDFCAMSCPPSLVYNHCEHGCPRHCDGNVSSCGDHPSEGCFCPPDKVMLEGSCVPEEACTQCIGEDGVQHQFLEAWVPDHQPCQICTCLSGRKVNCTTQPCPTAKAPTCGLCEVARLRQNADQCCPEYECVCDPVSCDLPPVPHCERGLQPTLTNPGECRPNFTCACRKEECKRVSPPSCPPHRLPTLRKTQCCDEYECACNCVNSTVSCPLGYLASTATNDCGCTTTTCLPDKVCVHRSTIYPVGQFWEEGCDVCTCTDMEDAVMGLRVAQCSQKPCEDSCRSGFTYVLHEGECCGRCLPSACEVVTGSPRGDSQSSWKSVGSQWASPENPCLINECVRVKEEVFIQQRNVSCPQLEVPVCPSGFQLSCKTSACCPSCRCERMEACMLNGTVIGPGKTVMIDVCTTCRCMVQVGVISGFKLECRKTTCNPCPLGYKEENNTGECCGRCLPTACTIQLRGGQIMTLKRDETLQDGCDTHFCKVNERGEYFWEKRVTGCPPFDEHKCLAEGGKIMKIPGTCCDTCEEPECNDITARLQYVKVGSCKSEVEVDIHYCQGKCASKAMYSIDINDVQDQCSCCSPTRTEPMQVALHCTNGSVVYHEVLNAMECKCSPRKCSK
T1 sequence (P07359 17-652): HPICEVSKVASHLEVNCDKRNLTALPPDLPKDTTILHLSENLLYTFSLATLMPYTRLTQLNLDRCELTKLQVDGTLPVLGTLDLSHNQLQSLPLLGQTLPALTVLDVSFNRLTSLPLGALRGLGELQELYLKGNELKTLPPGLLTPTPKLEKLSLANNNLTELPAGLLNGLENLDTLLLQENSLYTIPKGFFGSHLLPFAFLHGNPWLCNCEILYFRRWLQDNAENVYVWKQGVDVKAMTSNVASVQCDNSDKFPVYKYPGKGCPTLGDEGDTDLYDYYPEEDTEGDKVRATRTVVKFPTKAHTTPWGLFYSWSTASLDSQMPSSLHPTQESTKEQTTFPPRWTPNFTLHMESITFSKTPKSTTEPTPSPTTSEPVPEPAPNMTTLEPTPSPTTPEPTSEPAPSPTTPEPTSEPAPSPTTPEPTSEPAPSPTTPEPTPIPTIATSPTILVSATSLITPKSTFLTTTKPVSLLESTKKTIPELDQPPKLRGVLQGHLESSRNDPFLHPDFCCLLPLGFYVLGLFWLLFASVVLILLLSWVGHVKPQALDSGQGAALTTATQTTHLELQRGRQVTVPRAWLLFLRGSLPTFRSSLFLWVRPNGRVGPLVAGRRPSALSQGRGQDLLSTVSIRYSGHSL

As usually defined, the IC50 is the midpoint of a concentration-inhibition curve. With `Cc1cc(O)c(Cc2cc(O)c(Cc3cc(O)c(Cc4cc(O)c(Cc5cc(O)c(Cc6cc(O)c(Cc7cc(O)c(Cc8cc(O)ccc8CCC(=O)O)cc7CCC(=O)O)cc6CCC(=O)O)cc5CCC(=O)O)cc4CCC(=O)O)cc3CCC(=O)O)cc2CCC(=O)O)cc1CCC(=O)O` [Ex 4, 5-[4-[4-[4-[4-[4-[4-[[2-(2-carboxyethyl)-5-hydroxy]benzyl]-[2-(2-carboxyethyl)-5-hydroxy]benzyl]-[2-(2-carboxyethyl)-5-hydroxy]benzyl]-[2-(2-carboxyethyl)-5-hydroxy]benzyl]-[2-(2-carboxyethyl)-5-hydroxy]benzyl]-[2-(2-carboxyethyl)-5-hydroxy]benzyl]-[2-(2-carboxyethyl)-5-hydroxy]benzyl]-4-hydroxy-2-methylhydrocinnamic acid], in test [1], the “Ristocetin-Induced Inhibition of vWF Binding to Gp1b” value is listed as 50% at 100 µg/ml. The same molecule gave a half-inhibitory concentration (IC50) in test [2] of 1.6 µM. Besides, the “APTT ICDCT” value in test [3] came out at 430 µg/mL.
